Experiment: Amount of compound remaining in solution in acidic syrup kept at 3° C., measured by UV spectroscopy as a function of time
Type: physicochemical
Experimental: A concentrated solution 1 of (S)-1-(3-(((4-amino-2,2-dioxido-1H-benzo[c][1,2,6]thiadiazin-5-yl)oxy)methyl)piperidin-1-yl)-3-methylbutan-1-one at 0.3% (w/w) (3000 ppm) was prepared in water. pH was adjusted to 11 using NaOH to form (S)-1-(3-(((4-amino-2,2-dioxido-1H-benzo[c][1,2,6]thiadiazin-5-yl)oxy)methyl)piperidin-1-yl)-3-methylbutan-1-one sodium salt and obtain an homogeneous solution. Next, a syrup was prepared by mixing an aqueous solution of High Fructose Corn Syrup (HFCS), citric acid and deionized water. The final syrup contained 34% fructose, 0.68% citric acid, 0.1% sodium citrate and 65.22% water, with a pH of 2. […] The sample was kept at 3° C. and the amount of (S)-1-(3-(((4-amino-2,2-dioxido-1H-benzo[c][1,2,6]thiadiazin-5-yl)oxy)methyl)piperidin-1-yl)-3-methylbutan-1-one was measured by UV spectroscopy as a function of time. The amount of (S)-1-(3-(((4-amino-2,2-dioxido-1H-benzo[c][1,2,6]thiadiazin-5-yl)oxy)methyl)piperidin-1-yl)-3-methylbutan-1-one was reduced to 28 ppm after 1 week and first crystals were visually observed. After 12 weeks 1.7 ppm of (S)-1-(3-(((4-amino-2,2-dioxido-1H-benzo[c][1,2,6]thiadiazin-5-yl)oxy)methyl)piperidin-1-yl)-3-methylbutan-1-one remained in solution.
(§1) A concentrated solution 1 of (S)-1-(3-(((4-amino-2,2-dioxido-1H-benzo[c][1,2,6]thiadiazin-5-yl)oxy)methyl)piperidin-1-yl)-3-methylbutan-1-one at 0.3% (w/w) (3000 ppm) was prepared in water. pH was adjusted to 11 using NaOH to form (S)-1-(3-(((4-amino-2,2-dioxido-1H-benzo[c][1,2,6]thiadiazin-5-yl)oxy)methyl)piperidin-1-yl)-3-methylbutan-1-one sodium salt and obtain an homogeneous solution. Next, a syrup was prepared by mixing an aqueous solution of HFCS, citric acid, PVP 55k and deionized water. The final syrup contained 34% fructose, 0.68% citric acid, 0.1% sodium citrate, 0.03% PVP and 65.19% water. […] The sample was kept at 3° C. and the amount of (S)-1-(3-(((4-amino-2,2-dioxido-1H-benzo[c][1,2,6]thiadiazin-5-yl)oxy)methyl)piperidin-1-yl)-3-methylbutan-1-one was measured by UV spectroscopy as a function of time. The amount of (S)-1-(3-(((4-amino-2,2-dioxido-1H-benzo[c][1,2,6]thiadiazin-5-yl)oxy)methyl)piperidin-1-yl)-3-methylbutan-1-one was maintained at 30 ppm for 4 weeks, before a slight decrease and appearance of few crystals. After 12 weeks 9.6 ppm of (S)-1-(3-(((4-amino-2,2-dioxido-1H-benzo[c][1,2,6]thiadiazin-5-yl)oxy)methyl)piperidin-1-yl)-3-methylbutan-1-one remained in solution.
as §1, with “PVP 55k, maltodextrin (18DE)” for “PVP 55k”, “fructose, 15% maltodextrin,” for “fructose,”, “for 8” for “for 4”, “crystals.” for “crystals. After 12 weeks 9.6 ppm of (S)-1-(3-(((4-amino-2,2-dioxido-1H-benzo[c][1,2,6]thiadiazin-5-yl)oxy)methyl)piperidin-1-yl)-3-methylbutan-1-one remained in solution.”
A concentrated solution 1 of (S)-1-(3-(((4-amino-2,2-dioxido-1H-benzo[c][1,2,6]thiadiazin-5-yl)oxy)methyl)piperidin-1-yl)-3-methylbutan-1-one at 0.3% (w/w) (3000 ppm) was prepared in water. pH was adjusted to 11 using NaOH to form (S)-1-(3-(((4-amino-2,2-dioxido-1H-benzo[c][1,2,6]thiadiazin-5-yl)oxy)methyl)piperidin-1-yl)-3-methylbutan-1-one sodium salt and obtain an homogeneous solution. […]

CC(C)CC(=O)N1CCC[C@H](COc2cccc3c2C(N)=NS(=O)(=O)N3)C1 [(S)-1-(3-(((4-amino-2,2-dioxido-1H-benzo[c][1,2,6]thiadiazin-5-yl)oxy)methyl)piperidin-1-yl)-3-methylbutan-1-one]
amount remaining in solution (Example 1 (comparative): 30 ppm start, syrup 34 Brix (34% fructose, 0.68% citric acid, 0.1% sodium citrate), pH 2, no polymer, 3° C., after 1 week, first crystals visually observed): 28 ppm | amount remaining in solution (Example 1 (comparative): 30 ppm start, syrup 34 Brix, pH 2, no polymer, 3° C., after 12 weeks): 1.7 ppm | amount remaining in solution (Example 2: 30 ppm start, syrup 34 Brix with 0.03% PVP 55k, 3° C., after 12 weeks): 9.6 ppm | amount maintained in solution (Example 2: 30 ppm start, syrup 34 Brix with 0.03% PVP 55k, 3° C., maintained for 4 weeks, then slight decrease and few crystals): 30 ppm | amount remaining in solution (Example 3: 30 ppm start, syrup 34 Brix with 0.03% PVP 55k and 15% maltodextrin (18DE), 3° C., after 12 weeks): 27.3 ppm | amount maintained in solution (Example 3: 30 ppm start, syrup 34 Brix with 0.03% PVP 55k and 15% maltodextrin (18DE), 3° C., maintained for 8 weeks, then slight decrease and few crystals): 30 ppm | amount maintained in solution (Example 4: 30 ppm start, syrup 34 Brix with 0.03% HPMC (22 kDa), 3° C., maintained for 12 weeks): 30 ppm | amount remaining in solution (Example 10 (comparative): 18 ppm start, syrup 45 Brix, pH 2, no polymer, 3° C., after 7 weeks, first crystals visually observed): 15.8 ppm | amount remaining in solution (Example 10 (comparative): 18 ppm start, syrup 45 Brix, pH 2, no polymer, 3° C., after 14 weeks): 3.6 ppm | amount maintained in solution (Example 11: 18 ppm start, syrup 45 Brix with 0.0009% HPMC (Methocel K99), pH 2, 3° C., maintained for 17 weeks): 18 ppm | amount maintained in solution (Example 12: 18 ppm start, syrup 45 Brix with 0.0009% CMC, pH 2, 3° C., maintained for 16 weeks): 18 ppm | amount remaining in solution (Example 13 (comparative): 18 ppm start, syrup 20 Brix, pH 2, no polymer, 3° C., after 3.5 weeks, crystals visually observed): 14 ppm | amount remaining in solution (Example 13 (comparative): 18 ppm start, syrup 20 Brix, pH 2, no polymer, 3° C., after 18 weeks): 4 ppm | amount maintained in solution (Example 14: 18 ppm start, syrup 20 Brix with 0.0009% HPMC (Methocel K99), pH 2, 3° C., maintained for 18 weeks): 18 ppm
